Data taken from ChEMBL document CHEMBL1201861, “Genomics of Drug Sensitity in Cancer screening data, Wellcome Trust Sanger Institute”.

Columns and labels:
Assay in all cases: cells
[1] = tested on: SF-126; assay type: functional, cell-based, Homo sapiens; conditions: Homo sapiens, SF-126;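 also: growth inhibition of human SF126 cells, read out with a cell viability assay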
Description: SANGER: Inhibition of human SF126 cell growth in a cell viability assay.

[2] = tested on: SF-268; assay type: functional, cell-based, Homo sapiens; conditions: Homo sapiens, SF-268;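 also: growth inhibition of SF-268 cells determined with a cell viability assay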
Description: SANGER: Inhibition of human SF268 cell growth in a cell viability assay.

[3] = tested on: SH-4; assay type: functional, cell-based; conditions: Homo sapiens;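 also: growth inhibition of SH-4 cells, read out with a cell viability assay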
Description: SANGER: Inhibition of human SH-4 cell growth in a cell viability assay.

[4] = tested on: C2BBe1; assay type: functional, cell-based, Homo sapiens; conditions: Homo sapiens, C2BBe1;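 also: growth inhibition of C2BBe1 cells, read out through a viability assay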
Description: SANGER: Inhibition of human C2BBe1 cell growth in a cell viability assay.

[5] = tested on: SF-539; assay type: functional, cell-based, Homo sapiens; conditions: Homo sapiens, SF-539;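 also: Read-out is a cell viability assay, with IC50 reflecting inhibition of cell growth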
Description: SANGER: Inhibition of human SF539 cell growth in a cell viability assay.

[6] = tested on: A101D; assay type: functional, cell-based, Homo sapiens; conditions: Homo sapiens, A101D;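 also: growth inhibition of the cell line, measured with a viability assay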
Description: SANGER: Inhibition of human A101D cell growth in a cell viability assay.

[7] = tested on: COLO-800; assay type: functional, cell-based, Homo sapiens; conditions: Homo sapiens, COLO-800;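 also: growth inhibition of COLO-800 cells, read out with a cell viability assay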
Description: SANGER: Inhibition of human COLO-800 cell growth in a cell viability assay.

[8] = tested on: ES6; assay type: functional, cell-based; conditions: Homo sapiens;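 also: growth inhibition of human ES6 cells, read out with a cell viability assay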
Description: SANGER: Inhibition of human ES6 cell growth in a cell viability assay.

[9] = tested on: Ramos-2G6-4C10; assay type: functional, cell-based, Homo sapiens; conditions: Homo sapiens, Ramos-2G6-4C10;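 also: growth inhibition of the cell line, measured by a cell viability read-out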
Description: SANGER: Inhibition of human Ramos-2G6-4C10 cell growth in a cell viability assay.

[10] = tested on: ES8; assay type: functional, cell-based, Homo sapiens; conditions: Homo sapiens, ES8;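 also: growth inhibition of human ES8 cells, read out with a cell viability assay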
Description: SANGER: Inhibition of human ES8 cell growth in a cell viability assay.

[11] = tested on: LNCaP-Clone-FGC; assay type: functional, cell-based, Homo sapiens; conditions: Homo sapiens, LNCaP-Clone-FGC
Description: SANGER: Inhibition of human LNCaP-Clone-FGC cell growth in a cell viability assay.

[12] = tested on: GB-1; assay type: functional, cell-based, Homo sapiens; conditions: Homo sapiens, GB-1;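 also: growth of GB-1 cells judged by a viability assay, IC50 marks the concentration inhibiting growth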
Description: SANGER: Inhibition of human GB-1 cell growth in a cell viability assay.

[13] = tested on: NCI-H209; assay type: functional, cell-based, Homo sapiens; conditions: Homo sapiens, NCI-H209;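 also: growth inhibition of human NCI-H209 cells, measured by a cell viability assay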
Description: SANGER: Inhibition of human NCI-H209 cell growth in a cell viability assay.

[14] = tested on: SCC-15; assay type: functional, cell-based, Homo sapiens; conditions: Homo sapiens, SCC-15;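 also: growth inhibition of SCC-15 cells, read out with a cell viability assay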
Description: SANGER: Inhibition of human SCC-15 cell growth in a cell viability assay.

[15] = tested on: KARPAS-299; assay type: functional, cell-based, Homo sapiens; conditions: Homo sapiens, KARPAS-299
Description: SANGER: Inhibition of human KARPAS-299 cell growth in a cell viability assay.

[16] = tested on: LS-123; assay type: functional, cell-based, Homo sapiens; conditions: Homo sapiens, LS-123
Description: SANGER: Inhibition of human LS-123 cell growth in a cell viability assay.

[17] = tested on: HH; assay type: functional, cell-based, Homo sapiens; conditions: Homo sapiens, HH
Description: SANGER: Inhibition of human HH cell growth in a cell viability assay.

[18] = tested on: KNS-42; assay type: functional, cell-based; conditions: Homo sapiens;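 also: growth inhibition of KNS-42 cells, read out with a cell viability assay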
Description: SANGER: Inhibition of human KNS-42 cell growth in a cell viability assay.

[19] = tested on: NTERA-2-cl-D1; assay type: functional, cell-based, Homo sapiens; conditions: Homo sapiens, NTERA-2-cl-D1;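 also: inhibition of cell growth, measured with a cell viability assay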
Description: SANGER: Inhibition of human NTERA-S-cl-D1 cell growth in a cell viability assay.

[20] = tested on: LU-134-A; assay type: functional, cell-based, Homo sapiens; conditions: Homo sapiens, LU-134-A
Description: SANGER: Inhibition of human LU-134-A cell growth in a cell viability assay.

[21] = tested on: Mo; assay type: functional, cell-based, Homo sapiens; conditions: Homo sapiens, Mo
Description: SANGER: Inhibition of human Mo-T cell growth in a cell viability assay.

[22] = tested on: ETK-1; assay type: functional, cell-based, Homo sapiens; conditions: Homo sapiens, ETK-1;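 also: growth inhibition of human ETK-1 cells, read out with a cell viability assay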
Description: SANGER: Inhibition of human ETK-1 cell growth in a cell viability assay.

[23] = tested on: TGBC24TKB; assay type: functional, cell-based; conditions: Homo sapiens;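 also: growth inhibition of human TGBC24TKB cells, read out with a cell viability assay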
Description: SANGER: Inhibition of human TGBC24TKB cell growth in a cell viability assay.

[24] = tested on: BB65-RCC; assay type: functional, cell-based, Homo sapiens; conditions: Homo sapiens, BB65-RCC;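 also: growth inhibition of the cell line, measured with a cell viability assay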
Description: SANGER: Inhibition of human BB65-RCC cell growth in a cell viability assay.

[25] = tested on: IA-LM; assay type: functional, cell-based; conditions: Homo sapiens;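 also: cell viability assay measuring growth inhibition of human IA-LM cells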
Description: SANGER: Inhibition of human IA-LM cell growth in a cell viability assay.

[26] = tested on: LOX IMVI; assay type: functional, cell-based, Homo sapiens; conditions: Homo sapiens, LOX IMVI
Description: SANGER: Inhibition of human LOXIMVI cell growth in a cell viability assay.

[27] = tested on: 8-MG-BA; assay type: functional, cell-based, Homo sapiens; conditions: Homo sapiens, 8-MG-BA;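 also: growth inhibition of 8-MG-BA cells, read out with a cell viability assay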
Description: SANGER: Inhibition of human 8-MG-BA cell growth in a cell viability assay.

[28] = tested on: LB2518-MEL; assay type: functional, cell-based; conditions: Homo sapiens;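 also: growth inhibition of human LB2518-MEL cells, measured with a cell viability assay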
Description: SANGER: Inhibition of human LB2518-MEL cell growth in a cell viability assay.

[29] = tested on: MZ1-PC; assay type: functional, cell-based, Homo sapiens; conditions: Homo sapiens, MZ1-PC;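 also: cell viability assay measuring growth inhibition of human MZ1-PC cells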
Description: SANGER: Inhibition of human MZ1-PC cell growth in a cell viability assay.

[30] = tested on: MLMA; assay type: functional, cell-based, Homo sapiens; conditions: Homo sapiens, MLMA;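 also: growth inhibition of MLMA cells (human), determined through a cell viability readout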
Description: SANGER: Inhibition of human MLMA cell growth in a cell viability assay.

[31] = tested on: SK-MEL-1; assay type: functional, cell-based, Homo sapiens; conditions: Homo sapiens, SK-MEL-1;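 also: growth inhibition of human SK-MEL-1 cells, read out by a cell viability assay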
Description: SANGER: Inhibition of human SK-MEL-1 cell growth in a cell viability assay.

[32] = tested on: HCE-4; assay type: functional, cell-based; conditions: Homo sapiens;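 also: cell viability assay measuring inhibition of growth in the human HCE-4 cell line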
Description: SANGER: Inhibition of human HCE-4 cell growth in a cell viability assay.

[33] = tested on: D-263MG; assay type: functional, cell-based, Homo sapiens; conditions: Homo sapiens, D-263MG
Description: SANGER: Inhibition of human D-263MG cell growth in a cell viability assay.

[34] = tested on: ES1; assay type: functional, cell-based, Homo sapiens; conditions: Homo sapiens, ES1;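 also: growth inhibition of ES1 cells, read out with a cell viability assay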
Description: SANGER: Inhibition of human ES1 cell growth in a cell viability assay.

[35] = tested on: KARPAS-45; assay type: functional, cell-based, Homo sapiens; conditions: Homo sapiens, KARPAS-45;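 also: inhibition of cell line growth, read out through a viability assay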
Description: SANGER: Inhibition of human KARPAS-45 cell growth in a cell viability assay.

[36] = tested on: CGTH-W-1; assay type: functional, cell-based, Homo sapiens; conditions: Homo sapiens, CGTH-W-1;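 also: growth inhibition of human CGTH-W-1 cells measured by cell viability assay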
Description: SANGER: Inhibition of human CGTH-W-1 cell growth in a cell viability assay.

[37] = tested on: HCC2157; assay type: functional, cell-based, Homo sapiens; conditions: Homo sapiens, HCC2157;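 also: growth inhibition of the cancer cell line, read out as cell viability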
Description: SANGER: Inhibition of human HCC2157 cell growth in a cell viability assay.

[38] = tested on: NCI-H1355; assay type: functional, cell-based, Homo sapiens; conditions: Homo sapiens, NCI-H1355;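 also: growth inhibition of human NCI-H1355 cells, read out by a cell viability assay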
Description: SANGER: Inhibition of human NCI-H1355 cell growth in a cell viability assay.

[39] = tested on: MZ7-mel; assay type: functional, cell-based, Homo sapiens; conditions: Homo sapiens, MZ7-mel;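 also: growth inhibition of human MZ7-mel cells, measured by a cell viability assay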
Description: SANGER: Inhibition of human MZ7-mel cell growth in a cell viability assay.

[40] = tested on: GI-1; assay type: functional, cell-based, Homo sapiens; conditions: Homo sapiens, GI-1;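 also: growth inhibition of human GI-1 cells, measured with a cell viability readout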
Description: SANGER: Inhibition of human GI-1 cell growth in a cell viability assay.

[41] = tested on: GOTO; assay type: functional, cell-based, Homo sapiens; conditions: Homo sapiens, GOTO;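 also: growth inhibition of GOTO cells, read out by a cell viability assay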
Description: SANGER: Inhibition of human GOTO cell growth in a cell viability assay.

[42] = tested on: TE-12; assay type: functional, cell-based, Homo sapiens; conditions: Homo sapiens, TE-12;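 also: growth inhibition of TE-12 cells, read out by a cell viability assay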
Description: SANGER: Inhibition of human TE-12 cell growth in a cell viability assay.

[43] = tested on: VA-ES-BJ; assay type: functional, cell-based, Homo sapiens; conditions: Homo sapiens, VA-ES-BJ;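 also: growth inhibition of the VA-ES-BJ cell line, read out by a cell viability assay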
Description: SANGER: Inhibition of human VA-ES-BJ cell growth in a cell viability assay.

[44] = tested on: A498; assay type: functional, cell-based, Homo sapiens; conditions: Homo sapiens, A498;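 also: growth inhibition of human A498 cells, read out with a cell viability assay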
Description: SANGER: Inhibition of human A498 cell growth in a cell viability assay.

[45] = tested on: DMS-114; assay type: functional, cell-based, Homo sapiens; conditions: Homo sapiens, DMS-114
[46] = tested on: MFM-223; assay type: functional, cell-based, Homo sapiens; conditions: Homo sapiens, MFM-223
Description: SANGER: Inhibition of human MFM-223 cell growth in a cell viability assay.

[47] = tested on: RPMI-8866; assay type: functional, cell-based, Homo sapiens; conditions: Homo sapiens, RPMI-8866
Description: SANGER: Inhibition of human RPMI-8866 cell growth in a cell viability assay.

[48] = tested on: SNB-75; assay type: functional, cell-based, Homo sapiens; conditions: Homo sapiens, SNB-75;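 also: cell viability assay measuring growth inhibition of human SNB-75 cells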
Description: SANGER: Inhibition of human SNB75 cell growth in a cell viability assay.

[49] = tested on: KS-1; assay type: functional, cell-based; conditions: Homo sapiens;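 also: growth inhibition of KS-1 cells, read out with a cell viability assay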
Description: SANGER: Inhibition of human KS-1 cell growth in a cell viability assay.

[50] = tested on: TGW; assay type: functional, cell-based, Homo sapiens; conditions: Homo sapiens, TGW;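 also: growth inhibition of human TGW cells, read out with a cell viability assay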
Description: SANGER: Inhibition of human TGW cell growth in a cell viability assay.

Measured: IC50

O=C1NC(=O)c2c1c(-c1ccccc1Cl)cc1[nH]c3ccc(O)cc3c21
1250 nM: [5]
1640 nM: [17]
1650 nM: [3]
541 nM: [30]
610 nM: [9]
1420 nM: [24]
917 nM: [20]
1500 nM: [43]
666 nM: [41]
1570 nM: [37]
1550 nM: [27]
562 nM: [13]
not listed: [50]
> 2000 nM: all other assays above

CC1(C)CCC(c2ccc(Cl)cc2)=C(CN2CCN(c3ccc(C(=O)NS(=O)(=O)c4ccc(N[C@H](CCN5CCOCC5)CSc5ccccc5)c(S(=O)(=O)C(F)(F)F)c4)cc3)CC2)C1 [NAVITOCLAX]
1740 nM: [9]
87 nM: [13]
500 nM: [19]
1190 nM: [37]
78.1 nM: [35]
187 nM: [20]
46.3 nM: [50]
1970 nM: [30]
458 nM: [23]
> 2000 nM: all other assays above

CS(=O)(=O)N1CCN(Cc2cc3nc(-c4cccc5[nH]ncc45)nc(N4CCOCC4)c3s2)CC1 [PICTILISIB]
1610 nM: [9] | [43]
2040 nM: [26]
718 nM: [33]
811 nM: [10]
2110 nM: [49]
990 nM: [6]
1080 nM: [23]
1310 nM: [31]
111 nM: [17]
2330 nM: [37]
2020 nM: [48]
2210 nM: [34]
1300 nM: [44]
2310 nM: [1]
not listed: [11] | [13] | [19] | [35]
> 4000 nM: all other assays above
